Assay results: patent US8129425B2, “Small organic molecule regulators of cell proliferation” (Curis, Inc., priority 2000, dated 2012)

Assays:
[1] = system: malonate induced striatal lesion; assay: Rat malonate lesion model of Huntington's disease; type: in vivo; settings: 300 μM in Alzet pump into brain ventricles, 1 μl/hr for 6 days pretreatment; vs vehicle, p=0.0159
Method: Malonate is a mitochondrial toxin and defects in mitochondrial energy metabolism are thought to play a role in the pathology of neurodegenerative diseases such as HD. When malonate is injected into the rat striatum a lesion forms in this brain region. The experiments described below tested whether the Hh agonist would reduce the size of the malonate induced striatal lesion. Hh agonist was administered directly into the brain ventricles of male SD rats via a cannula attached to an osmotic Alzet pump. […] After 6 days of pretreatment with compound, malonate was injected directly into the brain striatum and the Alzet pump was removed. Four days later rats were euthanized and the brains were sliced into 2 mm slabs. The slices were placed in a 2% solution (TTC) that stains living tissue red and the striatal infarct white. The size of the infarct (% infarct) was measured using image analysis software and the data were analyzed by one-way ANOVA followed by appropriate post-hoc tests (p<0.05).

SVZ precursor cells = assay: SVZ precursor cell proliferation (BrdU) after direct brain administration in adult rats; type: in vivo, rat; settings: 200 μM in pump into brain ventricles, 0.5 μl/hr for 6 days; p<0.05
Method: Hh agonist was administered directly into the brain ventricles of male SD rats via a cannula attached to an osmotic Alzet pump. The pumps were filled with either vehicle (5% 2-hydroxypropyl-B-cyclodextrin, 4.35% Mannitol, 0.2% DMSO) or Hh agonist (U″ ranging from 10-600 μM) and the pump released compound into the ventricles at constant rate of 0.5 μl/hr for 6 days. After 6 days of pretreatment with compound, animals were injected with Bromodeoxyuridine (BrdU, 50 mg/kg, ip) to label dividing cells. Two hours after BrdU treatment, rats were euthanized and perfused with fixative. Brains were collected and processed for BrdU immunohistochemistry. The number of BrdU-immunoreactive (BrdU-IR) cells was then counted in the SVZ on both the sides of the brain with the cannula (ipsilateral) and without (contralateral).

[2] = system: hedgehog-responsive Gli-Luc reporter-construct; assay: Gli-Luc hedgehog pathway reporter assay in [10T1/2(s12)] cells; type: cell-based, murine; settings: Table 1
Method: To measure the hedgehog agonist activity of compounds, we used [10T1/2(s12)] cells containing the hedgehog-responsive Gli-Luc reporter-construct. In each MTP (MicroTiter Plate; 96-well plate), 10,000-20,000 cells were plated per well, in full media (10% FBS). After about 24-48 hr, plates were switched to low-serum media (=0.5%. FBS). Subsequently, a test compound was added at 1-5 μM in the presence or absence of octyl-hedgehog (see below). After another 24 hr, the media from the MTPs was discarded and replaced with luciferase assay-mix, containing lysis-buffer with luciferase substrate. The plates were incubated at RT for about 15-30 min and read in a luminometer.
Plates were incubated for 48 hr before switching to low-serum. Compounds were screened at 1-2 μM in the presence of Hh protein (0.01 μg/ml; EC30=about 30% of max-induced activity).
Plates were incubated for 24 hr before switching to low-serum. Compounds were screened at 5 μM without adding Hh protein.
From Screen A, we identified hits identified in FIGS. 32 and 33. The 1,4-diaminocyclohexane subunit of the compounds of FIG. 32 which include this moiety have the two amino substituents disposed in a trans-relationship, e.g., both substituents equatorial on the cyclohexane subunit. These hits were confirmed in Screen B. The data shown in FIGS. 34a and 34b essentially involved dosing the two compounds in both assays (Gli-Luc & SV-Luc).
The data from the Gli-Luc assay is converted to percent activity where full activity with Hh protein is set at 100% (FIG. 35; Table 1). […] Furthermore, the compounds show a more striking induction in the presence of hedgehog (EC50=0.2-0.3 μM, ECmax=70-90% of max induced activity with Hh protein), indicating a synergy between the compounds and Hh protein, consistent with the compounds serving as agonists for the hedgehog pathway.

[3] = system: nigrostriatal pathway (striatal DA and TH); assay: Mouse MPTP model of Parkinson's disease; type: in vivo; settings: pretreatment 0.3, 1, 3, and 10 mg/kg po for 3 days before MPTP; seven days post-lesioning, vs vehicle
[4] = system: neural precursor cells (SVZ and SG); assay: Neural precursor cell proliferation (BrdU) after oral administration in adult mouse; type: in vivo; settings: 7 days BID, 10 mg/kg or 25 mg/kg
Method: To test whether oral administration of the Hh agonist would affect proliferation of precursor cells, mice were dosed daily (once or twice/day, po) with either vehicle or the Hh agonist X″ for 1-7 days. On the appropriate day, mice were injected with BrdU (ip) and 2 hours later euthanized, perfused with fixative and brains processed for BrdU immunohistochemistry. The number of BrdU-IR cells was counted in both the SVZ and subgranular zone of the hippocampal dentate gyrus (SG).
The data shown in FIGS. 57 and 58 are from a study in which mice were dosed orally for 7 days (BID) with either vehicle (n=4) or Hh agonist X″ (10 mg/kg, n=3 or 25 mg/kg, n=3). The day after the final dose, mice were injected with BrdU and 2 hrs. later brains were collected, processed, and analyzed as described above.

[5] = system: middle cerebral artery occlusion infarct; assay: Mouse MCAO model of stroke; type: in vivo
Method: In this animal model, a small suture is inserted into the common carotid artery and threaded directly into the circulatory system of the brain. The suture is placed such that it blocks blood flow though the middle cerebral artery (MCA occlusion), which is the primary source of blood to the forebrain. After a set period of time, here 90 min, the suture is removed and blood flow to the forebrain is restored (reperfusion). The temporary blockage of blood flow to the forebrain results in behavioral symptoms and brain pathology that mimic those seen in human stroke patients. In the brain, within 24 hr post-MCA occlusion an infarct is visible using a stain (TTC) that stains living tissue red and the infarcted area white. The infarct following a 90 min MCAO usually involves both cortical and subcortical brain regions. In this study, mice were treated for 3 days (1/day) prior to MCAO with either vehicle (0.5% methyl cellulose, 0.2% Tween-80/0.9% NaCl, n=12) or the Hh agonist X″ (20 mg/kg, po, n=11). Animals were then subjected to 90 min MCAO followed by reperfusion. Approximately 24 hr after the start of occlusion ([…] of reperfusion) mice were euthanized and the brain sectioned into 2 mm slabs. The brain slices were stained with TTC to show the infarcted area of the brain. The infarct area/total forebrain (% infarct) was analyzed by measured and statistically analyzed. Male mice (7-8 wks of age) were subjected to 90 min MCAO followed by reperfusion. Animals were then treated with either vehicle (n=11) or the Hh agonist X″ (20 mg/kg, po, n=12) at the onset of reperfusion (90 min post-occlusion). Twenty-four hours after the onset of MCAO mice were euthanized, the brain sectioned into 2 mm slabs and slices stained with TTC for infarct size analysis.

EC50 [2] [nM]	SMILES	size of malonate-induced infarct (% infarct) [1]	number of BrdU-IR cells in SVZ (SVZ precursor cells)	attenuation of damage to the nigrostriatal pathway (striatal DA and TH activity) [3] [%]	number of proliferating cells in the SG of the dentate gyrus [4]	number of BrdU labeled cells in the SVZ ([4]; p<0.05)	cortical and subcortical lesion size ([5]; post-MCAO treatment 20 mg/kg po at onset of reperfusion)	size of the infarct ([5]; post-MCAO treatment 20 mg/kg po at onset of reperfusion, p<0.05)	cortical infarct size ([5]; pre-MCAO treatment 20 mg/kg po 1/day for 3 days, p=0.052)	total infarct size ([5]; pre-MCAO treatment 20 mg/kg po 1/day for 3 days, p=0.057)
< 5	CN[C@H]1CC[C@H](N(Cc2cccc(-c3ccncc3)c2)C(=O)c2sc3c(F)ccc(F)c3c2Cl)CC1 [U′′]	reduced the size of the malonate-induced infarct	dramatically increased on both sides of the brain							
< 5	CN[C@H]1CC[C@H](N(Cc2ccc(OC)c(-c3ccc(C#N)cc3)c2)C(=O)c2sc3c(F)ccc(F)c3c2Cl)CC1 [X′′]			~260	increased the number of proliferating cells in the SG of the dentate gyrus	increased the number of BrdU labeled cells in the SVZ	dramatically reduced both cortical and subcortical lesion size	significantly decreased the size of the infarct	marked reduction in cortical infarct size	dramatically reduced
